One experiment addresses T1, CDK1 (Homo sapiens, UniProt P06493).
T1 construct: purchased New England Biolabs, Beverly, Mass; 6020; host or cells: insect cells
In words: CDK-1 kinase screening assay (33P-ATP FlashPlate). Particulars: human CDK1 with cyclin B; 10 μM ATP; 1 hr at 30° C. The format is biochemical.

The target in another experiment is T2, VEGF-R2 (Rattus norvegicus, UniProt O08775).
T2 construct: polyhistidine (N)
Put plainly: VEGF-R2 kinase screening assay (33P-ATP FlashPlate).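 Further: Read-out is ³³P incorporation from ³³P-γ-ATP into biotinylated peptide substrate captured on streptavidin FlashPlate, counted by scintillation, 1% DMSO final, inhibition scaled between per-plate maximum and minimum signals.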 Type of experiment: biochemical. Particulars: rat VEGF-R2 kinase domain; 10 μM ATP; 1 hr at 30° C.

Another experiment addresses T3, HER2 (Homo sapiens, UniProt P04626).
T3 construct: GST (Glutathione-S-Transferase) (N); HIS6 (N); thrombin cleavage site (N); purchased Proqinase, Freiburg, Germany
In words: HER2 kinase screening assay (33P-ATP FlashPlate).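 Further: Biotin-poly(GT) 4:1 peptide captured on streptavidin FlashPlate, 33P transfer from γ-ATP read by scintillation counting, lower incorporation means inhibition, 1% DMSO final, 100 µL reaction.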 The format is biochemical. Particulars: GST-HIS6 HER-2 aa 679 to 1255; 10 μM ATP; 1 hr at 30° C.

The next experiment addresses T4, Aurora-A (Mus musculus, UniProt P97477).
T4 construct: polyhistidine (N)
T4 sequence (P97477 1-395): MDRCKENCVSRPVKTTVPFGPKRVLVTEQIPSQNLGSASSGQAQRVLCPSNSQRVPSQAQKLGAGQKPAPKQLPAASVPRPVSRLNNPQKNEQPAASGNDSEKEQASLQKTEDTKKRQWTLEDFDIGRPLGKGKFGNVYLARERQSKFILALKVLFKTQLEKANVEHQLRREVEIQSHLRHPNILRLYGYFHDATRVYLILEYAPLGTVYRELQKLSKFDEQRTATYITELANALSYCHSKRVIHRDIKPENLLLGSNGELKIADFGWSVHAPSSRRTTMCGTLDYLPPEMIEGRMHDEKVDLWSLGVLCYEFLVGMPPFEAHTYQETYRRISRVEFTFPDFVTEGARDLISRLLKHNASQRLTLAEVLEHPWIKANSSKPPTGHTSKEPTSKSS
In words: Aurora-A kinase screening assay (33P-ATP FlashPlate).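 Further: His-tagged mouse Aurora-A phosphorylating a biotinylated peptide captured on streptavidin plates, read as 33P uptake by scintillation counting, 1% DMSO, inhibition scaled between per-plate maximum and minimum signals.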 Type of experiment: biochemical. Particulars: 10 μM ATP, 1 hr at 30° C.

Experiment [1] has as its system HeLa cervical adenocarcinoma. Put plainly: Cell Proliferation Inhibition Assay (14C-thymidine incorporation), HeLa.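 Further: test compound in DMSO added to cells seeded in scintillating 96-well plates, DMSO-only wells as control, uptake of methyl 14C-thymidine into new DNA counted.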 The format is cell-based. To be noted: Homo sapiens, HeLa, HeLa cells.
A further experiment has as its system A375 malignant melanoma. Put plainly: Cell Proliferation Inhibition Assay (14C-thymidine incorporation), A375.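 Further: proliferation measured by radiolabelled thymidine uptake into new DNA, counted in scintillating 96-well plates, compound-treated wells compared with DMSO-only control wells.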 The format is cell-based. To be noted: Homo sapiens, A-375, A375 cells.
The next experiment has as its system HCT-116 colon carcinoma. Put plainly: Cell Proliferation Inhibition Assay (14C-thymidine incorporation), HCT-116.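 Further: proliferation measured as methyl 14C-thymidine uptake into new DNA, counted in 96-well scintillating microplates, compared with DMSO-only control wells.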 Particulars: Homo sapiens, HCT-116, HCT-116 cells. The format is cell-based.
In experiment [2] the test system is Human melanoma A375 cells. In words: In Vivo Models - Inhibition of Tumor Growth (A375 xenograft). Particulars: female athymic mice, 25 mg/kg i.p. daily. The procedure:
The ability of test compounds to inhibit unregulated growth of human tumor cells in vivo was evaluated by implanting human tumor cells into the hindflank of athymic mice, administering a test compound and then quantifying any change in tumor size.
Certain compounds at particular doses produced adverse effects in this model. One skilled in the art would be able to establish the effective amount of compound required to achieve an effective therapeutic window.
Human melanoma A375 cells were implanted subcutaneously into the hindflank of female athymic mice (Charles River) and allowed to grow for 6-10 days. After a measurable tumor was established (as determined by baseline caliper measurement), the animal was administered an intraperitoneal (i.p.) dose of the test compound daily at 25 mg/kg for the length of the study. Tumor size was measured at certain intervals as shown in Table 5 and the degree of inhibition for a test compound was determined by comparing the reduction in tumor volume for drug-treated animals to that of untreated and vehicle-treated animals. The vehicle used was 20% hydroxypropyl β-cyclodextran.

Another experiment deals with T5, RET (Homo sapiens, UniProt P07949).
T5 construct: polyhistidine (N)
T5 sequence (P07949 658-1114 limits assumed): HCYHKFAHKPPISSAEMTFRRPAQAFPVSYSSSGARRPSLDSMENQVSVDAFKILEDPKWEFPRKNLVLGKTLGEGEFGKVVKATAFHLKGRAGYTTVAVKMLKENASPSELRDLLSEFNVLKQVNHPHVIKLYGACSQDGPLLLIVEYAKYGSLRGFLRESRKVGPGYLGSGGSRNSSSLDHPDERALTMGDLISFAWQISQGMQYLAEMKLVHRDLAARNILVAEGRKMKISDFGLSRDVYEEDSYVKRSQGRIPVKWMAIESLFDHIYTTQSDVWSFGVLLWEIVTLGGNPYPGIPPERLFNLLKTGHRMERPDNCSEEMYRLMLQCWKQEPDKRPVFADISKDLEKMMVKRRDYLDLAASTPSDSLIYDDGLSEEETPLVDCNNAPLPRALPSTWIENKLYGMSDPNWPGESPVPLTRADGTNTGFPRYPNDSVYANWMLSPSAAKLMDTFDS
In words: RET kinase screening assay (33P-ATP FlashPlate).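 Further: biotinylated peptide substrate captured on streptavidin FlashPlate, 33P phosphate transfer read by scintillation counting, 1% DMSO, lower incorporation means inhibition, percent relative to per-plate maximum and minimum signals.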 The format is biochemical. Particulars: human RET kinase domain; 10 μM ATP; 1 hr at 30° C.

In another experiment the target is T6, c-Src kinase (Homo sapiens, UniProt P12931).
T6 construct: purchased Upstate Biotechnology, Lake Placid, N.Y
T6 sequence (P12931 whole entry): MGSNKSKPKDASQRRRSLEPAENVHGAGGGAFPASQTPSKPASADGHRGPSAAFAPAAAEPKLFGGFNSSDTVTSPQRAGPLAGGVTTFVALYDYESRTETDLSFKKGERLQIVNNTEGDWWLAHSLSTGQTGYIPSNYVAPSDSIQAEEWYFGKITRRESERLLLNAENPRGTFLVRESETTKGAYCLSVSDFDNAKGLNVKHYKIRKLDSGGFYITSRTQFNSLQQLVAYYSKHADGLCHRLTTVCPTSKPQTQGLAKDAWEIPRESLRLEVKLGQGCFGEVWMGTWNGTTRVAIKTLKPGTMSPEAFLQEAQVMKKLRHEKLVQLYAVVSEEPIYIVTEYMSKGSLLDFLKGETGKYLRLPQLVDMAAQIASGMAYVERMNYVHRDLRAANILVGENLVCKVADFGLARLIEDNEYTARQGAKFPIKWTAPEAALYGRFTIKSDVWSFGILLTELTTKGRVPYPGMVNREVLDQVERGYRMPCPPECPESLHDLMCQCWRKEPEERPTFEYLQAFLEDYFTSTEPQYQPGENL
In words: c-Src Kinase Assay. The format is biochemical. To be noted: 5 μM ATP. Summed up: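 Human c-Src phosphorylated Cdc2 peptide (100 μM) […]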

The next experiment addresses T7, Lyn kinase (Homo sapiens, UniProt P07948).
T7 construct: purchased Upstate Biotechnology, Lake Placid, N.Y
Put plainly: Lyn Kinase Assay. Particulars: 5 μM ATP. The format is biochemical. Summed up:
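Recombinant human Lyn kinase in pH 7.5 Tris buffer with EGTA, vanadate, β-mercaptoethanol and BSA reacted with compound for 40 min at 30° C. The radiolabelled product was captured on P30 filtermats after phosphoric acid stop and counted by scintillation. IC50 came from percent inhibition versus log concentration, using plate maximum/minimum signals.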

Where only a bound is given, the exact number is not on record here.

T2 sequence (O08775 786-1343): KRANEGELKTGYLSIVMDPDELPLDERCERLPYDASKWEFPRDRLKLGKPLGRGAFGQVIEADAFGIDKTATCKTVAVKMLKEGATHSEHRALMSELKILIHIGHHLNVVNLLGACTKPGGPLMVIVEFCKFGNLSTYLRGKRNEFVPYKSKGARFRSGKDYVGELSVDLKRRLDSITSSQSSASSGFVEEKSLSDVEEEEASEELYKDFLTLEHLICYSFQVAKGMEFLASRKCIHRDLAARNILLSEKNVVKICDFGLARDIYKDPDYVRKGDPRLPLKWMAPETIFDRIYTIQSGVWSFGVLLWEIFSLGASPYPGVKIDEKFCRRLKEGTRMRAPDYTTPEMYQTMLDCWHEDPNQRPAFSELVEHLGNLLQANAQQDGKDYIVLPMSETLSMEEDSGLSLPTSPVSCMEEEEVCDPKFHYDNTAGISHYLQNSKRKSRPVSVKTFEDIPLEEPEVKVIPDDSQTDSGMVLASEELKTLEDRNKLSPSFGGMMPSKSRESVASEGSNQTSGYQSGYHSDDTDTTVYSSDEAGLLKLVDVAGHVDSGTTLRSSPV
T3 sequence (P04626 679-1255): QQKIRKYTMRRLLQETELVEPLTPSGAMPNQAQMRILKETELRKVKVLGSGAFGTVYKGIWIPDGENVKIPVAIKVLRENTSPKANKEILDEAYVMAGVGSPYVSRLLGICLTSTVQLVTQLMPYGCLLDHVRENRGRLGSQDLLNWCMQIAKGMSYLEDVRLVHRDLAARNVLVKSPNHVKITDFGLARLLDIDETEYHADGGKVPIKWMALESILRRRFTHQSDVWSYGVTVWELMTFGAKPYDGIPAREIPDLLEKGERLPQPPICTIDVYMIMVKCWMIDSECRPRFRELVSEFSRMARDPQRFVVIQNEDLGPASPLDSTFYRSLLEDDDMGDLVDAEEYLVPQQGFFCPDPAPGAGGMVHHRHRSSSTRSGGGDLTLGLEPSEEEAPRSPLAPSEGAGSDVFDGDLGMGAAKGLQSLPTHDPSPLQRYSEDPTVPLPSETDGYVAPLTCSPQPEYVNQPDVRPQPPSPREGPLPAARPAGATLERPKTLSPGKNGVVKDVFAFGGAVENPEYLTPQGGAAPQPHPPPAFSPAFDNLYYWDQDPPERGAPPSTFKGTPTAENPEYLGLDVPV
T1 sequence (P06493 whole entry): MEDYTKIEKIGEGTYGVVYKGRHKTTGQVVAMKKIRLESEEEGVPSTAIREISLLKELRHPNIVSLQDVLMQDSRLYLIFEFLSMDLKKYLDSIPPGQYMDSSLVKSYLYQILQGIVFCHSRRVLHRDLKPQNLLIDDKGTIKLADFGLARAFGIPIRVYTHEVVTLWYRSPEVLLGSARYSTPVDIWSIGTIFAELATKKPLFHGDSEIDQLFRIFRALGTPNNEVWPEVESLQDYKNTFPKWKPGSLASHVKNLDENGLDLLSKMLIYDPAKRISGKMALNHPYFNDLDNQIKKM
T1 sequence (P14635 whole entry partner): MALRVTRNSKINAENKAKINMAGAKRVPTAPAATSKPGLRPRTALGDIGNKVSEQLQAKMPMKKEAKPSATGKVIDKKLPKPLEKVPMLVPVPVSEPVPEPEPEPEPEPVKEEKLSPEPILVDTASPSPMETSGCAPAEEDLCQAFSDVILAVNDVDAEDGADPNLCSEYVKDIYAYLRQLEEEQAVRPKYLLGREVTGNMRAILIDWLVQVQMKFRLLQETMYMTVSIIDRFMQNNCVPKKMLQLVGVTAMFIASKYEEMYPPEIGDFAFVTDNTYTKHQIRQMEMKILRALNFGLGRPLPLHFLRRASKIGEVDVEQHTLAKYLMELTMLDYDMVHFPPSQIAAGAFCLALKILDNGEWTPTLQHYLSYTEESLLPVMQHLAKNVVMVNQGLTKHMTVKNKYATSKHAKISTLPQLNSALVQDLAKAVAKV
T7 sequence (P07948 whole entry): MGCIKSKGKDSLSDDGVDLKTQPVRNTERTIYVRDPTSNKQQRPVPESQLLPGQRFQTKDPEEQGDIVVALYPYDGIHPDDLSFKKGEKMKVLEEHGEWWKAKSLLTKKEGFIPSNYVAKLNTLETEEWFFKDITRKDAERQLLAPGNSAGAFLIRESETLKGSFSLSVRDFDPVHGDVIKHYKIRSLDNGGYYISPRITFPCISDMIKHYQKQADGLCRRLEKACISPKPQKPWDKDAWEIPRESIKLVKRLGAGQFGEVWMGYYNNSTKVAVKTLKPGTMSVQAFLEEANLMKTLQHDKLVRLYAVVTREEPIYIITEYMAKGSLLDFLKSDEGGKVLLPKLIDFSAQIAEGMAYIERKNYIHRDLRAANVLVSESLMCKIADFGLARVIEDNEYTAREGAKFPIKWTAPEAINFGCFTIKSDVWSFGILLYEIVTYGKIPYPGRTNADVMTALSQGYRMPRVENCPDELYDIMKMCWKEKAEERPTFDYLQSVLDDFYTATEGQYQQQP

What is called IC50 is the concentration at which inhibition is half-maximal. The low end stands for greater potency, the high end for weaker potency. On to `CCNCc1cncc(-c2cnc3[nH]nc(-c4nc5cc(F)c(F)cc5[nH]4)c3c2)c1` [Cpd 107, {5-[3-(5,6-difluoro-1H-benzoimidazol-2-yl)-1H-pyrazolo[3,4-b]pyridin-5-yl]-pyridin-3-ylmethyl}-ethyl-amine], for which the IC50 was 0.0011 µM on CDK1; around 0.1 µM against VEGF-R2; 3.6 µM at HER2; above 1 µM at Aurora-A; 0.138 µM in [1]; 0.0461 µM in the experiment on A375 malignant melanoma. Moreover, in the experiment on HCT-116 colon carcinoma, the IC50 came out at 0.0947 µM. Also, in experiment [2] (Day 1), the Tumor volume worked out at 95.4 mm^3.

As to `CCNCc1cncc(-c2cnc3[nH]nc(-c4nc5ccc(F)cc5[nH]4)c3c2)c1` [Cpd 106, ethyl-{5-[3-(6-fluoro-1H-benzoimidazol-2-yl)-1H-pyrazolo[3,4-b]pyridin-5-yl]-pyridin-3-ylmethyl}-amine], the IC50 against CDK1 is 0.0007 µM; on VEGF-R2, 0.154 µM; at HER2 it was 5.12 µM; on Aurora-A it was 0.803 µM; in [1], 0.0586 µM; with A375 malignant melanoma it was 0.0512 µM. In the experiment with HCT-116 colon carcinoma, this compound displayed an IC50 of 0.0937 µM. For the same compound, the Tumor volume in [2] (Day 1) is 95.4 mm^3; in experiment [2] (Day 4), 94.7 mm^3; in experiment [2] (Day 8) it was 318.6 mm^3; in experiment [2] (Day 11), 558.3 mm^3; in experiment [2] (Day 14), 896.8 mm^3.

Regarding `CCCNCc1cncc(-c2cnc3[nH]nc(-c4nc5c(COC)cccc5[nH]4)c3c2)c1` [Cpd 78, {5-[3-(4-methoxymethyl-1H-benzoimidazol-2-yl)-1H-pyrazolo[3,4-b]pyridin-5-yl]-pyridin-3-ylmethyl}-propyl-amine], the IC50 at CDK1 was found to be 0.0074 µM; on Aurora-A it was 3.99 µM. Moreover, the Tumor volume in experiment [2] (Day 1) is given as 95.4 mm^3; in experiment [2] (Day 4) it was 113.6 mm^3; in experiment [2] (Day 8), 329.3 mm^3; in [2] (Day 11) it was 558 mm^3; in [2] (Day 14), 856.9 mm^3.

`CNCc1cncc(-c2cnc3[nH]nc(-c4nc5c(COC)cccc5[nH]4)c3c2)c1` [Cpd 56, {5-[3-(4-methoxymethyl-1H-benzoimidazol-2-yl)-1H-pyrazolo[3,4-b]pyridin-5-yl]-pyridin-3-ylmethyl}-methyl-amine]: the IC50 was 0.00254 µM against CDK1; 0.639 µM on VEGF-R2; above 100 µM at HER2; above 1 µM at Aurora-A; around 1 µM against RET; 0.886 µM against c-Src kinase. The IC50 on Lyn kinase stood at 1.08 µM; in experiment [1] it was 0.459 µM; in the experiment on A375 malignant melanoma it was 0.269 µM; with HCT-116 colon carcinoma, 0.313 µM.

As to `CCNCc1cncc(-c2cnc3[nH]nc(-c4nc5cc(N6CCN(C)CC6)ccc5[nH]4)c3c2)c1` [Cpd 82, ethyl-(5-{3-[5-(4-methyl-piperazin-1-yl)-1H-benzoimidazol-2-yl]-1H-pyrazolo[3,4-b]pyridin-5-yl}-pyridin-3-ylmethyl)-amine], the IC50 against CDK1 is 0.00305 µM; at VEGF-R2, 0.025 µM; on HER2, 1.07 µM; at Aurora-A, 0.283 µM; at c-Src kinase, 0.712 µM; on Lyn kinase, 0.415 µM. For the same compound, the results for the 50% inhibitory concentration (IC50) (in [1]; in the experiment with A375 malignant melanoma; with HCT-116 colon carcinoma) were 0.474 µM, 0.627 µM and 0.543 µM, respectively. In addition, the Tumor volume is 97.7 mm^3 in experiment [2] (Day 1); 222 mm^3 in experiment [2] (Day 4); 455.5 mm^3 in [2] (Day 8); 742.4 mm^3 in experiment [2] (Day 11); 1323.6 mm^3 in experiment [2] (Day 14).

`COCc1cccc2[nH]c(-c3n[nH]c4ncc(-c5ccc(N6CCNCC6)nc5)cc34)nc12` [Cpd 69, 3-(4-methoxymethyl-1H-benzoimidazol-2-yl)-5-(6-piperazin-1-yl-pyridin-3-yl)-1H-pyrazolo[3,4-b]pyridine]: the IC50 against CDK1 is above 10 µM; on VEGF-R2 it was around 1 µM; against HER2, above 100 µM; against Aurora-A, above 1 µM; at RET, above 100 µM; on c-Src kinase it was 0.597 µM. Also, the IC50 against Lyn kinase was found to be 2.89 µM; in experiment [1], 1.73 µM; in the experiment with A375 malignant melanoma, 0.0185 µM; with HCT-116 colon carcinoma, 0.077 µM.

As to `COCc1cccc2[nH]c(-c3n[nH]c4ncc(-c5cncc(CNC(C)C)c5C)cc34)nc12` [Cpd 58, isopropyl-{5-[3-(4-methoxymethyl-1H-benzoimidazol-2-yl)-1H-pyrazolo[3,4-b]pyridin-5-yl]-4-methyl-pyridin-3-ylmethyl}-amine], the half-inhibitory concentration (IC50) at CDK1 is 0.339 µM; on VEGF-R2, 3.9 µM; on HER2 it was above 100 µM; at Aurora-A, 12.4 µM; against RET it was above 10 µM; against c-Src kinase, 0.653 µM. The concentration for half-maximal inhibition (IC50) against Lyn kinase was 0.529 µM; in experiment [1] it was 2.71 µM; in the experiment on A375 malignant melanoma it was 0.168 µM; in the experiment with HCT-116 colon carcinoma, 0.459 µM.

Values taken from patent US7541367B2, “3-benzoimidazolyl-pyrazolopyridines useful in treating kinase disorders” (Janssen Pharmaceutica, N.V., priority 2005, dated 2009).
